Assay results as given in patent US8383640B2, “Substituted pyrimidine ether compounds and use thereof” (priority 2007, dated 2013).
Where two headings read alike, the source gives them in different places.

Tests used:
rice blast = assay type: cell-based; conditions: in vitro, 24 hours incubation
tomato late blight = assay type: cell-based; conditions: in vitro, 25 mg/L, 24 hours incubation
corn rust = assay: Fungicidal activity in vivo, corn rust; conditions: 25 mg/L, plants sprayed, scored after 1 week
Method: (§1) Determination of Fungicidal Activity In Vivo:
(§2) Compounds were disolved into acetone to receive stock solution. Deionized water containing 0.1% Tween 80 was added in the previous solution to receive 20 ml test solution. Plants are sprayed by using a turntable sprayer. After 24 hours, plants were innoculated with a conidial suspension. Plants were then transferred into a dew chamber [R.H. (relative humidity)>95%] for infection. After this treatment, plants were removed from the chamber to the greenhouse for normal maintaining, After the infection period, the plants were placed in the greenhouse. After 1 week, the plants were scored for disease control.

cucumber anthracnose = assay: Fungicidal activity in vivo, cucumber anthracnose; conditions: plants sprayed, scored after 1 week
Method: as §1, §2

cucumber downy mildew = assay: Fungicidal activity in vivo, cucumber downy mildew; conditions: plants sprayed, scored after 1 week
Method: as §1, §2

carmine spider mite eggs = assay: Inhibition activity on carmine spider mite eggs; assay type: in vivo
[1] = tested on: nymph of carmine spider mite; assay: Control on nymph of carmine spider mite; assay type: in vivo
[2] = tested on: mite (Tetranychus cinnabarinus); assay: Acaricidal activity, airbrush spray, mite; conditions: mortality after 2-3 days
Method: Compounds were dissolved in mixed solvent (acetone: methanol=1:1), and diluted to required concentration with water containing 0.1% of Tween 80.
The second instar larvae of armyworm (Spodoptera exigua), diamond backmoth (Plutella xylostella), green peach aphids (Myzus persicae) and mite (Tetranychus cinnabarinus) were used in biological test. The method was employed either spraying by airbrush. A test solution (0.5 ml) was sprayed at the pressure of 0.7 kg/cm^2. Percent mortality was determined after 2-3 days.

[3] = tested on: diamond backmoth (Plutella xylostella); assay: Insecticidal activity, airbrush spray, diamond backmoth; assay type: in vivo; conditions: 600 mg/L, mortality after 2-3 days
[4] = tested on: armyworm (Spodoptera exigua); assay: Insecticidal activity, airbrush spray, armyworm; assay type: in vivo; conditions: 600 mg/L, mortality after 2-3 days
cucumber grey mold = assay: Fungicidal activity in vitro, cucumber grey mold; assay type: cell-based; conditions: 2.8 mg/L, 24 hours incubation
wheat powdery mildew = assay: Fungicidal activity in vivo, wheat powdery mildew; conditions: plants sprayed, scored after 1 week
Method: as §1, §2

| SMILES | control of rice blast (rice blast; 8.3 mg/L) | control of rice blast (rice blast; 25 mg/L) [%] | control of tomato late blight (tomato late blight) [%] | control of cucumber anthracnose (cucumber anthracnose; 25 mg/L) [%] | control of cucumber anthracnose (cucumber anthracnose; 400 mg/L) [%] | control of cucumber downy mildew (cucumber downy mildew; 400 mg/L) [%] | control of mite ([2]; 600 mg/L) [%] | further results |
| --- | --- | --- | --- | --- | --- | --- | --- | --- |
| COC=C(C(=O)OC)c1ccccc1COc1cc(C)nc(Nc2ccccc2)n1 [Compound 19] | 100% | 100 | 100 | 100 | 100 | 100 | – | control of rice blast (rice blast; 2.8 mg/L): 100%; control of corn rust (corn rust): 100%; control of cucumber downy mildew (cucumber downy mildew; 25 mg/L): 100% |
| COC=C(C(=O)OC)c1ccccc1COc1cc(C(F)(F)F)nc(Nc2ccccc2)n1 [Compound 20] | 100% | 100 | 100 | 100 | 100 | 100 | 100 | inhibition activity on carmine spider mite eggs (carmine spider mite eggs; 5 mg/L): 80%; inhibition activity on carmine spider mite eggs (carmine spider mite eggs; 10 mg/L): 100%; control on nymph of carmine spider mite ([1]; 10 mg/L): 90%; control on nymph of carmine spider mite ([1]; 20 mg/L): 100%; control of rice blast (rice blast; 2.8 mg/L): 100%; control of mite ([2]; 150 mg/L): 100% |
| COC=C(C(=O)OC)c1ccccc1COc1cc(C2CC2)nc(Nc2ccccc2)n1 [Compound 25] | about 80% | 100 | 100 | 100 | 100 | 100 | 100 | control of diamond backmoth [3]: 100%; control of corn rust (corn rust): 100%; control of cucumber downy mildew (cucumber downy mildew; 25 mg/L): 100% |
| COC=C(C(=O)OC)c1ccccc1COc1nc(Nc2ccccc2)nc(C)c1C [Compound 41] | about 80% | 100 | 100 | 100 | 100 | 100 | – | control of rice blast (rice blast; 2.8 mg/L): about 80%; control of corn rust (corn rust): 100%; control of cucumber downy mildew (cucumber downy mildew; 25 mg/L): 100% |
| CO/N=C(/C(=O)OC)c1ccccc1COc1cc(C(F)(F)F)nc(Nc2ccccc2)n1 [Compound 229] | about 80% | – | 100 | – | – | 100 | 100 | control of armyworm [4]: 100% |
| CON=C(C(=O)OC)c1ccccc1COc1cc(C2CC2)nc(Nc2ccccc2)n1 [Compound 232] | about 80% | 100 | 100 | – | 100 | 100 | – | – |
| COC(=O)N(OC)c1ccccc1COc1cc(C(F)(F)F)nc(Nc2ccccc2)n1 [Compound 424] | – | – | 100 | – | 100 | 100 | – | control of armyworm [4]: 100% |
| CNC(=O)N(OC)c1ccccc1COc1cc(Br)nc(Nc2ccccc2)n1 [Compound 475] | about 80% | 100 | – | – | – | – | – | control of armyworm [4]: 100% |
| COC(=O)N(OC)c1ccccc1COc1cc(C2CC2)nc(Nc2ccccc2)n1 [Compound 664] | about 80% | 100 | 100 | – | – | 100 | – | – |
| CNC(=O)C(=NOC)c1ccccc1COc1cc(C2CC2)nc(Nc2ccccc2)n1 [Compound 665] | about 80% | – | – | 100 | – | – | – | control of corn rust (corn rust): 100% |
| CNC(=O)N(OC)c1ccccc1COc1cc(C2CC2)nc(Nc2ccccc2)n1 [Compound 666] | 100% | – | – | – | – | – | – | – |
| CON=C(C(=O)OC)c1ccccc1COc1nc(Nc2ccccc2)nc(C)c1C [Compound 667] | 100% | 100 | 100 | – | 100 | 100 | – | control of diamond backmoth [3]: 100%; control of rice blast (rice blast; 2.8 mg/L): about 80%; control of cucumber grey mold (cucumber grey mold): about 50% |
| COC(=O)N(OC)c1ccccc1COc1nc(Nc2ccccc2)nc(C)c1C [Compound 668] | about 80% | 100 | 100 | – | 100 | 100 | – | – |
| CNC(=O)C(=NOC)c1ccccc1COc1nc(Nc2ccccc2)nc(C)c1C [Compound 669] | – | – | – | 100 | – | – | – | control of corn rust (corn rust): 100% |
| CNC(=O)N(OC)c1ccccc1COc1nc(Nc2ccccc2)nc(C)c1C [Compound 670] | about 80% | – | – | 100 | – | – | – | – |
| CON=C(C(=O)OC)c1ccccc1COc1cc(C)nc(Nc2ccccc2)n1 [Compound 676] | 100% | – | – | – | – | – | – | control of rice blast (rice blast; 2.8 mg/L): about 80% |
| COC(=O)N(OC)c1ccccc1COc1cc(C)nc(Nc2ccccc2)n1 [Compound 677] | 100% | – | – | 100 | – | – | – | – |
| CNC(=O)C(=NOC)c1ccccc1COc1cc(C)nc(Nc2ccccc2)n1 [Compound 678] | – | – | – | 100 | – | – | – | – |
| COC=C(C(=O)OC)c1ccccc1COc1cc(C(F)(F)F)nc(N(C)C)n1 [Compound 680] | – | – | – | – | – | – | – | control of wheat powdery mildew (wheat powdery mildew; 25 mg/L): 98%; control of wheat powdery mildew (wheat powdery mildew; 400 mg/L): 100% |
| COC=C(C(=O)OC)c1ccccc1COc1cc(C(F)(F)F)nc(NC(C)C)n1 [Compound 682] | – | – | – | – | – | – | 100 | – |
| COC=C(C(=O)OC)c1ccccc1COc1cc(C(F)(F)F)nc(Nc2cccnc2Cl)n1 [Compound 691] | – | – | – | – | – | – | 100 | control of mite ([2]; 40 mg/L): 100% |
| COC=C(C(=O)OC)c1ccccc1COc1cc(C(F)(F)F)nc(Nc2ccc(C)cc2C)n1 [Compound 693] | – | – | – | – | – | – | 100 | – |
| COC=C(C(=O)OC)c1ccccc1COc1cc(C(F)(F)F)nc(Nc2cccc(Cl)c2Cl)n1 [Compound 694] | – | – | – | – | – | – | 100 | control of mite ([2]; 40 mg/L): 100% |
| COC=C(C(=O)OC)c1ccccc1COc1cc(C(F)(F)F)nc(Nc2ccc(C)c(C)c2)n1 [Compound 697] | – | – | – | – | – | – | 100 | – |
| COC=C(C(=O)OC)c1ccccc1COc1cc(C(F)(F)F)nc(NC2CCCCC2)n1 [Compound 701] | – | – | – | – | – | – | – | control of mite ([2]; 40 mg/L): 100% |
